Results on one molecule are retold here after patent publication US10238658B2, “1-pyrazolyl-3-(4-((2-anilinopyrimidin-4-yl) oxy) napththalen-1-yl) ureas as p38 MAP kinase inhibitors” (Respivert Limited, priority 2011, dated 2019).

The test system of assay [1] is IL-8. Nature of the assay: LPS-stimulated IL-8 production in sputum macrophages from COPD. It is filed as cell-based. Particulars: Homo sapiens, Macrophage. As to the method: (§1) Patients with COPD were inhaled with a nebulised solution of 3% (w/v) hypertonic saline using an ultrasonic nebuliser (Devilbiss, Carthage, Mo.) with tidal breathing for 5 min. This procedure was repeated a maximum of three times until enough sputum was obtained. The sputum samples were homogenized and mixed vigorously using a vortex mixer in 0.02% v/v dithiothreitol (DTT) solution. The samples were re-suspended in PBS (40 mL) followed by centrifugation at 1500 rpm at 4° C. for 10 min to obtain sputum cell pellets. The pellets were washed twice with PBS (40 mL). The sputum cells were then re-suspended in macrophage serum-free medium (macrophage-SFM, Life technologies, Paisley, UK; to achieve 2×10^6/well in a 24 well plate) containing 20 U/mL penicillin, 0.02 mg/mL streptomycin and 5 μg/mL amphotericin B and seeded on high bound 96-well plate, followed by incubation for 2 hr at 37° C. and at 5% CO2 to allow the macrophages to attach to the bottom of the plate. The cells on the plate were washed with fresh macrophage-SFM (200 μL/well) to remove neutrophils and other contaminated cells. The adherent cells (mainly sputum macrophages) on the plate were used for further analysis. Sputum induction and isolation were conducted in Quintiles Drug Research Unit at Guys Hospital and ethics approval and written informed consent was obtained by Quintiles.
(§2) Where appropriate, 1 μL of a solution containing either the test compound or reference article at the stated concentrations or alternatively 1 μL of DMSO as the vehicle control was added to each well (200 μL in media) and the cells were incubated for 2 hr. […] After washing with 200 uL wash buffer per well, the beads were resuspended in sheath fluid (150 μL) and analyzed immediately. The level of each analyte in the supernatant was calculated using Xcel Fit software with a 4 or 5-parameter equation using each standard curve. The inhibitions of each cytokine production were calculated at each concentration by comparison with vehicle control. The IC50 values were determined from concentration-inhibition curves using XL-Fit (idbs, Guildford, UK)

The test system of assay [2] is Balb/c mice. As to the kind of experiment: LPS-induced neutrophil accumulation in mice. It is filed as in vivo, mouse. As to the method:
[…] At T=0, mice were placed into an exposure chamber and exposed to LPS (7.0 mL, 0.5 mg/mL solution in PBS) for 30 min). After a further 8 hr the animals were anesthetized, their tracheas cannulated and BALF extracted by infusing and then withdrawing from their lungs 1.0 mL of PBS via the tracheal catheter. Total and differential white cell counts in the BALF samples were measured using a Neubaur haemocytometer. Cytospin smears of the BALF samples were prepared by centrifugation at 200 rpm for 5 min at RT and stained using a DiffQuik stain system (Dade Behring). Cells were counted using oil immersion microscopy. Data for neutrophil numbers in BAL are shown as mean ±S.E.M. (standard error of the mean). The percentage inhibition of neutrophil accumulation was calculated for each treatment relative to vehicle treatment,

In assay [3] the test system is A/J mice. As to the kind of experiment: Cigarette smoke model: macrophage and neutrophil accumulation in BALF. It is filed as in vivo, mouse. The conditions noted are these: for % inhibition Macrophage in BALF / % inhibition Neutrophil in BALF: tobacco smoke. As to the method: A/J mice (males, 5 weeks old) were exposed to cigarette smoke (4% cigarette smoke, diluted with air) for 30 min/day for 11 days using a Tobacco Smoke Inhalation Experiment System for small animals (Model SIS-CS; Sibata Scientific Technology, Tokyo, Japan). […] At 12 hr after the last dosing, each of the animals was anesthetized, the trachea cannulated and bronchoalveolar lavage fluid (BALF) was collected. The numbers of alveolar macrophages and neutrophils were determined by FACS analysis (EPICS® ALTRA II, Beckman Coulter, Inc., Fullerton, Calif., USA) using anti-mouse MOMA2 antibody (macrophage) or anti-mouse 7/4 antibody (neutrophil). BALF was centrifuged and the supernatant was collected. The level of keratinocyte chemoattractant (KC; CXCL1) in BALF was quantitated using a Quentikine® mouse KC ELISA kit (R&D systems, Inc., Minneapolis, Minn., USA).

For assay [4], the system named is MIP1α. Nature of the assay: LPS-stimulated MIP1α production in sputum macrophages from COPD. It is filed as cell-based. Particulars: Homo sapiens, Macrophage. As to the method:
as §1, §2

For `Cc1ccc(-n2nc(C(C)(C)C)cc2NC(=O)Nc2ccc(Oc3ccnc(Nc4ccccc4)n3)c3ccccc23)cc1` [Example 1, 1-(3-(tert-Butyl)-1-(p-tolyl)-1H-pyrazol-5-yl)-3-(4-(2-(phenylamino)pyrimidin-4-yloxy)naphthalen-1-yl)urea], the 50% inhibitory concentration (IC50) in assay [1] (COPD patients, LPS) came to 68 nM; in assay [4] (COPD patients, LPS) it was 7.5 nM. The Emax at 0.1 µg/mL in assay [1] (read-out: IL-8 E max, sputum macrophage) came to 64%; in assay [4] (read-out: MIP1α E max, sputum macrophage) it was 89%. The “% inhibition of neutrophil numbers in BALF” value was 18% in assay [2] (0.05 mg/mL intra tracheal, pre-dose 2 hr); 48% in assay [2] (0.2 mg/mL intra tracheal, pre-dose 2 hr); 77% in assay [2] (1.0 mg/mL intra tracheal, pre-dose 2 hr); 48% in assay [2] (1.0 mg/mL intra tracheal, pre-dose 8 hr); 4% in assay [2] (1.0 mg/mL intra tracheal, pre-dose 12 hr). Also, the “LPS-induced neutrophil accumulation, effect in words” value in assay [2] (mice) is given as “dose dependent inhibition”. For the same molecule, the “macrophage accumulation in BALF induced by cigarette smoke, effect in words” value in assay [3] (mice) was “dose-dependent inhibition”. Also, the “neutrophil accumulation in BALF induced by cigarette smoke, effect in words” value in assay [3] (mice) is recorded as “dose-dependent inhibition”. Further, the “% inhibition Macrophage in BALF” value in assay [3] (0.32 μg/mL intra-nasal) was determined as 11%; in assay [3] (1.6 μg/mL intra-nasal), 28%; in assay [3] (8.0 μg/mL intra-nasal), 43%; in assay [3] (40 μg/mL intra-nasal), 64%. Moreover, the “% inhibition Neutrophil in BALF” value was determined as 12% in assay [3] (0.32 μg/mL intra-nasal), 29% in assay [3] (1.6 μg/mL intra-nasal), 41% in assay [3] (8.0 μg/mL intra-nasal) and 52% in assay [3] (40 μg/mL intra-nasal).

By IC50 is commonly meant the concentration needed to halve the response being measured.
